Laboratory results: ChEMBL document CHEMBL5154642, “Development of [18F]MIPS15692, a radiotracer with in vitro proof-of-concept for the imaging of MER tyrosine kinase (MERTK) in neuroinflammatory disease” (Eur J Med Chem, 2021)

How the values were obtained:
[1] = Drug uptake in Swiss outbred mouse brain assessed as time required to reach peak value at 3 mg/kg, iv measured after 60 mins by LC-MS/MS analysis; type: ADME, organism-based
[2] = Unbound brain-to-plasma concentration ratio in Swiss outbred mouse at 4.4 mg/kg, iv measured after 2 hrs; type: ADME, organism-based; conditions: read-out: K(p,uu,brain)
[3] = target: T1, Tyrosine-protein kinase Mer (Mus musculus) (UniProt Q60805); experiment: Binding affinity to MERTK in cuprizone-challenged C57BL/6 mouse whole brain assessed as maximum binding at 18.1 nM by autoradiography; type: tissue-based; conditions: tested as the 18F-labelled form
T1 sequence (whole entry): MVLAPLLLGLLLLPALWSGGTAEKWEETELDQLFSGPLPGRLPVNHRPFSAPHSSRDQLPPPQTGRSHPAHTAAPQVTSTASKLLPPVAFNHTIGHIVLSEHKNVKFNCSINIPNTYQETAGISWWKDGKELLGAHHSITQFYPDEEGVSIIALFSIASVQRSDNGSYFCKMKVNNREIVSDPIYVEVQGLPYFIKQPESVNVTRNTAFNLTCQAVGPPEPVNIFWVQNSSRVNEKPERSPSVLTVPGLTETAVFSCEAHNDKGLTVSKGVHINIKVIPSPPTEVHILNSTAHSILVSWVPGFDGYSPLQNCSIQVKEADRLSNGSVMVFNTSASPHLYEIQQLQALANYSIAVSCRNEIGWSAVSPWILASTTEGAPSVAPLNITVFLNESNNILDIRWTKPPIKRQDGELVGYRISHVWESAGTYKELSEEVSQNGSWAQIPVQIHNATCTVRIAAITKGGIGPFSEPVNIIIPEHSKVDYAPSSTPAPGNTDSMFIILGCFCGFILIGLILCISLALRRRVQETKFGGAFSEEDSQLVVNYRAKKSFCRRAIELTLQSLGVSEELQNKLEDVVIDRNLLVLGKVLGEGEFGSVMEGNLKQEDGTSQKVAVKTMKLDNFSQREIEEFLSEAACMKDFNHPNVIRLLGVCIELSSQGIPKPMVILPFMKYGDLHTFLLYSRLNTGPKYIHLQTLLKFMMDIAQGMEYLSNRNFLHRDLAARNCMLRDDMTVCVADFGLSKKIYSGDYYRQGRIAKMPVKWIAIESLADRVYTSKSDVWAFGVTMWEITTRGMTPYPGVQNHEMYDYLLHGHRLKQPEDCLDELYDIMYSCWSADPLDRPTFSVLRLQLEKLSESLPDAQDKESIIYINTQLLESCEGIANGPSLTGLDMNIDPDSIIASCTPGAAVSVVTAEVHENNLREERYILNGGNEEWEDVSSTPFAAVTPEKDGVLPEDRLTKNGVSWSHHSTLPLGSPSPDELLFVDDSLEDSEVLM

[4] = target: T1, Tyrosine-protein kinase Mer (Mus musculus); experiment: Binding affinity to MERTK in cuprizone-challenged C57BL/6 mouse brain CC/HC region assessed as maximum binding at 18.1 nM by autoradiography; type: tissue-based; conditions: tested as the 18F-labelled form
[5] = target: T2, Tyrosine-protein kinase Mer (Mus musculus, UniProt Q60805); experiment: Binding affinity to MERTK in cuprizone-challenged C57BL/6 mouse whole brain assessed as dissociation constant at 18.1 nM by autoradiography; type: tissue-based
T2 sequence (Q60805 whole entry): T1 sequence (whole entry)

[6] = target: T2, Tyrosine-protein kinase Mer; experiment: Binding affinity to MERTK in cuprizone-challenged C57BL/6 mouse brain CC/HC region assessed as dissociation constant at 18.1 nM by autoradiography; type: tissue-based
[7] = Drug uptake in liver of cuprizone-challenged C57BL/6 mouse at 4.4 mg/kg, iv by PET imaging; type: ADME, organism-based; conditions: in vivo
[8] = Drug uptake in heart of cuprizone-challenged C57BL/6 mouse at 4.4 mg/kg, iv by PET imaging; type: ADME, organism-based; conditions: in vivo
[9] = Drug uptake in brain of cuprizone-challenged C57BL/6 mouse at 4.4 mg/kg, iv by PET imaging measured upto 2 mins; type: ADME, organism-based; conditions: in vivo
[10] = Retention time of the compound by HPLC analysis; type: physicochemical
[11] = Retention time of the compound by UV-Vis spectroscopy analysis; type: physicochemical

SMILES	Tmax [1] [min]	Kp uu at 2 h [2]	Bmax [3] [fmol/mg]	Bmax [4] [fmol/mg]	Kd [5] [µM]	Kd [6] [µM]	Drug uptake [7]	Drug uptake [8]	Drug uptake [9] [%]	Retention_time [10] [min]	Retention_time [11] [min]
CCCCNc1ncc(C(=O)NC2CCN(CCF)CC2)c(N[C@H]2CC[C@H](O)CC2)n1	15										
CCCCNc1ncc(C(=O)NC2CCN(CCCF)CC2)c(N[C@H]2CC[C@H](O)CC2)n1	15	> 1	422	896							
CCCCNc1ncc(C(=O)NC2CCN(CCC[18F])CC2)c(N[C@H]2CC[C@H](O)CC2)n1					0.0126	0.0197	<= 0.24%	<= 0.24%	0.023	18.57	18.8
